From ChEMBL document CHEMBL4043139, “Fluoro and pentafluorothio analogs of the antitumoral curcuminoid EF24 with superior antiangiogenic and vascular-disruptive effects” (Bioorg Med Chem, 2017)
Activity calls are given as the source filed them. No cut-off for these calls is given here.

Key:
HCT-116 = assay: Cytotoxicity against human HCT116 cells after 72 hrs by MTT assay; type: functional, cell-based; conditions: for IC50: HCT-116, 72 h
HT-29 [1] = assay: Cell cycle arrest in human HT-29 cells assessed as accumulation at G2/M phase at 2.5 uM after 24 hrs by propidium iodide staining based flow cytometric analysis (reference value: 15.5 +/- 0.5%); type: functional
U-87MG ATCC [2] = assay: (§1) Cytotoxicity against human U87 cells after 72 hrs by MTT assay; type: functional, cell-based
[3] = as §1; type: functional, cell-based, U-87MG ATCC; conditions: U-87 MG
HT-29 [4] = assay: Cell cycle arrest in human HT-29 cells assessed as accumulation at G1 phase at 2.5 uM after 24 hrs by propidium iodide staining based flow cytometric analysis (reference value: 68 +/- 0.9%); type: functional
PANC-1 = assay: Cytotoxicity against human PANC1 cells after 72 hrs by MTT assay; type: functional, cell-based; conditions: for IC50: PANC-1, 72 h
U-87MG ATCC [5] = assay: Anti-vasculogenic activity in human U87 cells assessed as reduction in formation of cord-like structures at 2.5 uM after 24 hrs by matrigel based light microscopic analysis; type: functional, cell-based
518A2 [6] = assay: Cytotoxicity against human 518A2 cells after 72 hrs by MTT assay; type: functional, cell-based; conditions: for IC50: 518A2, 72 h
Gallus gallus [7] = assay: Vascular disruptive activity in 6 days post fertilized chicken egg assessed as area covered by blood vessels at 10 nmol administered topically measured after 6 hrs by light microscopic analysis relative to control; type: functional
[8] = Cytotoxicity against human U87 cells assessed as cell viability at 10 nmol after 24 hrs by MTT assay relative to control; type: cell-based, U-87MG ATCC; conditions: read-out: Activity
HT-29 [9] = assay: Cytotoxicity against human HT-29 cells after 72 hrs by MTT assay; type: functional, cell-based; conditions: for IC50: HT-29, 72 h
HT-29 [10] = assay: Upregulation of cyclin B1 expression in human HT-29 cells at 1 to 2.5 uM after 24 hrs by Western blot analysis; type: functional, cell-based
KB-V1/Vbl = assay: (§2) Cytotoxicity against human KB-V1/Vbl cells after 72 hrs by MTT assay; type: functional, cell-based
[11] = as §2; type: functional, cell-based
[12] = (§3) Cytotoxicity against human MCF7/Topo cells after 72 hrs by MTT assay; type: functional, cell-based
MCF7/Topo = assay: as §3; type: functional, cell-based
HT-29 [13] = assay: Cell cycle arrest in human HT-29 cells assessed as accumulation at S phase at 2.5 uM after 24 hrs by propidium iodide staining based flow cytometric analysis (reference value: 15.6 +/- 0.3%); type: functional
HT-29 [14] = assay: Cell cycle arrest in human HT-29 cells assessed as accumulation at sub-G1 phase at 2.5 uM after 24 hrs by propidium iodide staining based flow cytometric analysis (reference value: 0.9 +/- 0.1%); type: functional
U-87MG ATCC [15] = assay: Anti-vasculogenic activity in human U87 cells assessed as reduction in formation of blood-vessel like tubular structures at 2.5 uM after 24 hrs by matrigel based light microscopic analysis; type: functional, cell-based
DLD-1 = assay: Cytotoxicity against human DLD1 cells after 72 hrs by MTT assay; type: functional, cell-based; conditions: for IC50: DLD-1, 72 h
HT-29 [16] = assay: Cell cycle arrest in human HT-29 cells assessed as accumulation at G2/M phase at 5 uM after 24 hrs by propidium iodide staining based flow cytometric analysis (reference value: 15.5 +/- 0.5%); type: functional
HT-29 [17] = assay: Cell cycle arrest in human HT-29 cells assessed as accumulation at sub-G1 phase at 5 uM after 24 hrs by propidium iodide staining based flow cytometric analysis (reference value: 0.9 +/- 0.1%); type: functional
HT-29 [18] = assay: Cell cycle arrest in human HT-29 cells assessed as accumulation at G1 phase at 1 uM after 24 hrs by propidium iodide staining based flow cytometric analysis (reference value: 68 +/- 0.9%); type: functional
518A2 [19] = assay: Anti-migratory activity in human 518A2 cells assessed as wound closure at 250 nM after 48 hrs by light microscopic analysis (reference value: 100%); type: functional
HT-29 [20] = assay: Cell cycle arrest in human HT-29 cells assessed as accumulation at sub-G1 phase at 1 uM after 24 hrs by propidium iodide staining based flow cytometric analysis (reference value: 0.9 +/- 0.1%); type: functional
HT-29 [21] = assay: Cell cycle arrest in human HT-29 cells assessed as accumulation at S phase at 1 uM after 24 hrs by propidium iodide staining based flow cytometric analysis (reference value: 15.6 +/- 0.3%); type: functional
[22] = Cytotoxicity against HDFa after 72 hrs by MTT assay; type: cell-based; conditions: Homo sapiens
HT-29 [23] = assay: Cell cycle arrest in human HT-29 cells assessed as accumulation at S phase at 5 uM after 24 hrs by propidium iodide staining based flow cytometric analysis (reference value: 15.6 +/- 0.3%); type: functional
HT-29 [24] = assay: Cell cycle arrest in human HT-29 cells assessed as accumulation at G1 phase at 5 uM after 24 hrs by propidium iodide staining based flow cytometric analysis (reference value: 68 +/- 0.9%); type: functional
HT-29 [25] = assay: Cell cycle arrest in human HT-29 cells assessed as accumulation at G2/M phase at 1 uM after 24 hrs by propidium iodide staining based flow cytometric analysis (reference value: 15.5 +/- 0.5%); type: functional
Homo sapiens [26] = species on record: Homo sapiens; assay: Inhibition of NF-kappaB in human 518A2 cells assessed as reduction in p65 subunit expression at 1 to 2 uM after 24 hrs by Western blot analysis; type: cell-based
Gallus gallus [27] = assay: Vascular disruptive activity in 6 days post fertilized chicken egg chorioallantoic/vitelline membrane assessed as degradation of blood vessels at 10 nmol administered topically measured after 6 hrs by stereo-microscopic analysis; type: functional
Gallus gallus [28] = assay: Vascular disruptive activity in 6 days post fertilized chicken egg chorioallantoic/vitelline membrane assessed as disruption of capillary reticulation at 10 nmol administered topically measured after 6 hrs by stereo-microscopic analysis; type: functional
518A2 [29] = assay: Anti-migratory activity in human 518A2 cells assessed as wound closure at 250 nM after 24 hrs by light microscopic analysis; type: functional, cell-based
Gallus gallus [30] = assay: Vascular disruptive activity in 6 days post fertilized chicken egg chorioallantoic/vitelline membrane at 10 nmol administered topically measured after 24 hrs by stereo-microscopic analysis; type: functional
U-87MG ATCC [31] = assay: Anti-vasculogenic activity in human U87 cells assessed as reduction in formation of small stray colonies at 2.5 uM after 24 hrs by matrigel based light microscopic analysis; type: functional, cell-based
Homo sapiens [32] = species on record: Homo sapiens; assay: Inhibition of NF-kappaB in human 518A2 cells assessed as reduction in p65 subunit expression at 0.5 to 1 uM after 24 hrs by Western blot analysis; type: cell-based
U-87MG ATCC [33] = assay: Vascular disruptive activity in human U87 cells assessed as disruption of preformed tubular networks at 1 uM after 24 hrs by matrigel based light microscopic analysis; type: functional, cell-based
Gallus gallus [34] = assay: Toxicity in 6 days post fertilized chicken egg at 10 nmol administered topically; conditions: in vivo, topical_or_ocular, 144 h
Danio rerio = species on record: Danio rerio; assay: Antiangiogenic activity in 72 hrs post fertilized zebra fish embryo harboring fli1a:EGFP assessed as area of subintestinal veins at 5 uM after 48 hrs by fluorescence microscopic analysis (reference value: 100%); type: functional
[35] = Cytotoxicity against human U87 cells assessed as effect on cell viability at 1 uM after 24 hrs by MTT assay; type: cell-based; conditions: u-87mg atcc
U-87MG ATCC [36] = assay: Anti-vasculogenic activity in human U87 cells assessed as reduction in formation of blood-vessel like tubular structures at 1.5 uM after 24 hrs by matrigel based light microscopic analysis; type: functional, cell-based
Gallus gallus [37] = assay: Vascular disruptive activity in 6 days post fertilized chicken egg chorioallantoic/vitelline membrane assessed as degradation of blood vessels at 10 nmol administered topically measured after 6 to 24 hrs by stereo-microscopic analysis; type: functional
HT-29 [38] = assay: Upregulation of cyclin B1 expression in human HT-29 cells at 2.5 to 5 uM after 24 hrs by Western blot analysis; type: functional, cell-based
U-87MG ATCC [39] = assay: Anti-vasculogenic activity in human U87 cells assessed as reduction in formation of cord-like structures at 1.5 uM after 24 hrs by matrigel based light microscopic analysis; type: functional, cell-based
Gallus gallus [40] = assay: Vascular disruptive activity in 6 days post fertilized chicken egg chorioallantoic/vitelline membrane at 10 nmol administered topically measured up to 24 hrs by stereo-microscopic analysis; type: functional

CN1C/C(=C\c2c(F)cc(F)cc2F)C(=O)/C(=C/c2c(F)cc(F)cc2F)C1
Activity (HCT-116): Dose-dependent effect
IC50 (HCT-116): > 10 µM
Activity (HT-29 [1]): 37%
Activity (U-87MG ATCC [2]): Dose-dependent effect
IC50 [3]: > 10 µM
Activity (HT-29 [4]): 25.5%
Activity (PANC-1): Dose-dependent effect
IC50 (PANC-1): > 10 µM
Activity (U-87MG ATCC [5]): inactive
Activity (518A2 [6]): Dose-dependent effect
IC50 (518A2 [6]): > 10 µM
Activity (Gallus gallus [7]): 40%
viability at 24 h, 10 nmol [8]: > 85%
Activity (HT-29 [9]): Dose-dependent effect
IC50 (HT-29 [9]): > 10 µM
Activity (HT-29 [10]): Active
Activity (KB-V1/Vbl): Dose-dependent effect
IC50 [11]: 0.82 µM
IC50 [12]: 2.1 µM
Activity (MCF7/Topo): Dose-dependent effect
Activity (HT-29 [13]): 7.4%
Activity (HT-29 [14]): 30.1%
Activity (U-87MG ATCC [15]): inactive
Activity (DLD-1): Dose-dependent effect
IC50 (DLD-1): > 10 µM
Activity (HT-29 [16]): 36.9%
Activity (HT-29 [17]): 32.7%
Activity (HT-29 [18]): 58.9%
Activity (518A2 [19]): Active
Activity (HT-29 [20]): 5%
Activity (HT-29 [21]): 18.3%
IC50 [22]: > 10 µM
Activity (HT-29 [23]): 8.1%
Activity (HT-29 [24]): 22.2%
Activity (HT-29 [25]): 17.8%
inhibition (Homo sapiens [26]): Active
Activity (Gallus gallus [27]): Active
Activity (Gallus gallus [28]): Active
Activity (518A2 [29]): Active

CN1C/C(=C\c2cc(F)c(F)cc2F)C(=O)/C(=C/c2cc(F)c(F)cc2F)C1
Activity (HCT-116): Dose-dependent effect
IC50 (HCT-116): 1.5 µM
Activity (HT-29 [1]): 23.2%
Activity (Gallus gallus [30]): inactive
Activity (U-87MG ATCC [2]): Dose-dependent effect
IC50 [3]: 3.1 µM
Activity (U-87MG ATCC [31]): inactive
Activity (HT-29 [4]): 46.8%
Activity (PANC-1): Dose-dependent effect
IC50 (PANC-1): 1.6 µM
Activity (U-87MG ATCC [5]): inactive
inhibition (Homo sapiens [32]): Active
Activity (518A2 [6]): Dose-dependent effect
IC50 (518A2 [6]): 1.6 µM
Activity (Gallus gallus [7]): 44%
viability at 24 h, 10 nmol [8]: > 85%
Activity (HT-29 [9]): Dose-dependent effect
IC50 (HT-29 [9]): 0.84 µM
Activity (HT-29 [10]): Active
Activity (KB-V1/Vbl): Dose-dependent effect
IC50 [11]: 0.72 µM
IC50 [12]: 1.6 µM
Activity (MCF7/Topo): Dose-dependent effect
Activity (U-87MG ATCC [33]): Active
Activity (HT-29 [13]): 13%
Activity (HT-29 [14]): 17%
Activity (U-87MG ATCC [15]): inactive
Activity (Gallus gallus [34]): Non-Toxic
Activity (DLD-1): Dose-dependent effect
IC50 (DLD-1): 1.8 µM
Activity (HT-29 [16]): 23.7%
Activity (HT-29 [17]): 19.7%
Activity (HT-29 [18]): 61.3%
Activity (518A2 [19]): Active
Activity (HT-29 [20]): 2.3%
Activity (Danio rerio): 39%
Activity (HT-29 [21]): 18.7%
IC50 [22]: > 10 µM
Activity (HT-29 [23]): 28.3%
Activity [35]: Non-Toxic
Activity (HT-29 [24]): 28.2%
Activity (HT-29 [25]): 17.7%
Activity (Gallus gallus [27]): Active
Activity (Gallus gallus [28]): Active
Activity (518A2 [29]): Active

O=C1/C(=C/c2ccccc2F)CNC/C1=C\c1ccccc1F
Activity (HCT-116): Dose-dependent effect
IC50 (HCT-116): 1.5 µM
Activity (HT-29 [1]): 25.9%
Activity (U-87MG ATCC [36]): Active
Activity (U-87MG ATCC [2]): Dose-dependent effect
IC50 [3]: 1.4 µM
Activity (HT-29 [4]): 38.9%
Activity (PANC-1): Dose-dependent effect
IC50 (PANC-1): 1.5 µM
Activity (Gallus gallus [37]): Active
inhibition (Homo sapiens [32]): Active
Activity (518A2 [6]): Dose-dependent effect
IC50 (518A2 [6]): 1.8 µM
Activity (Gallus gallus [7]): 43%
Activity (HT-29 [38]): Active
viability at 24 h, 10 nmol [8]: > 85%
Activity (HT-29 [9]): Dose-dependent effect
IC50 (HT-29 [9]): 1.6 µM
Activity (KB-V1/Vbl): Dose-dependent effect
IC50 [11]: 1.1 µM
IC50 [12]: 2.2 µM
Activity (MCF7/Topo): Dose-dependent effect
Activity (U-87MG ATCC [33]): Active
Activity (HT-29 [13]): 22.3%
Activity (HT-29 [14]): 12.9%
Activity (DLD-1): Dose-dependent effect
IC50 (DLD-1): 1.3 µM
Activity (HT-29 [16]): 34.4%
Activity (HT-29 [17]): 7.1%
Activity (HT-29 [18]): 59.1%
Activity (U-87MG ATCC [39]): Active
Activity (HT-29 [20]): 3.3%
Activity (Danio rerio): 74%
Activity (HT-29 [21]): 21%
IC50 [22]: 8.5 µM
Activity (HT-29 [23]): 22.6%
Activity [35]: Non-Toxic
Activity (HT-29 [24]): 35.8%
Activity (HT-29 [25]): 16.6%

COc1cc(/C=C/C(=O)CC(=O)/C=C/c2ccc(O)c(OC)c2)ccc1O
Activity (Gallus gallus [7]): inactive
Activity (Gallus gallus [40]): inactive
